Laboratory results as given in patent US10202658B2, “Methods for determining hypersusceptibility of HIV-1 to non-nucleoside reverse transcriptase inhibitors” (Monogram Biosciences, Inc., priority 2005, dated 2019).

System: HIV-1 clinical isolates grouped by RT mutations
Assay: Pairwise comparison of NNRTI fold change between groups of clinical isolates (Student's T-test, Bonferroni's Multiple Comparison Test)
Assay type: cell-based
Procedure: This example provides methods and compositions for identifying mutations that correlate with hypersusceptibility to a NNRTI. Resistance test vectors were constructed and used as described in Example 1. Resistance test vectors derived from patient samples or clones derived from the resistance test vector pools were tested in a resistance assay to determine accurately and quantitatively the relative EFV, DLV, or NVP resistance or susceptibility compared to the median observed resistance or susceptibility.
To identify mutations associated with NNRTI hypersusceptibility, the following analysis was performed. […] The TAMs referenced in. Table 1 include M41L, D67N, K70R, L210W, T215FY, and K219X, while the NAMs referenced include K65R, T69X, L74IV, V75X, and M184IV. Isolates without NRTI, NNRTI or PI mutations served as a wild type (WT) reference group. Further comparison groups comprised isolates with three TAMS including T215Y (+/−H208Y, +/−V118I) or three TAMS including K70R. Scatter plots and statistical tests (See FIGS. 1-6) were generated using Prism 4.0 (GraphPad, San Diego, Calif.)
In addition, a pairwise comparison between two sets of data was conducted using Bonferroni's Multiple Comparison Test using the Prism 4.0 software. The results of the comparison are presented in Tables 2, 3, and 4, appended to the end of this document. Samples with K65R, K65R+M184V, or 2 TAMs in combination with T215Y had over 40% with EFV FC<0.4.

O=C1Nc2ccc(Cl)cc2[C@@](C#CC2CC2)(C(F)(F)F)O1 [EFV, efavirenz]
Mean Diff. of fold change (1 NAM vs 2 NAMs): 0.1722 | Mean Diff. of fold change (1 NAM vs 3 NAMs): 0.1256 | Mean Diff. of fold change (1 NAM vs K65R): 0.1565 | Mean Diff. of fold change (1 NAM vs K65R + M184V): 0.2694 | Mean Diff. of fold change (1 NAM vs K70R_3_TAMs): −0.02778 | Mean Diff. of fold change (1 NAM vs M184V): 0.001657 | Mean Diff. of fold change (1 NAM vs T69): −0.09534 | Mean Diff. of fold change (1 NAM vs T215Y_3_TAMs): 0.2651 | Mean Diff. of fold change (1 NAM vs T215Y_3_TAMs_118): 0.3291 | Mean Diff. of fold change (1 NAM vs T215Y_3_TAMs_208): 0.3294 | Mean Diff. of fold change (1 NAM vs T215Y_3_TAMs_no118): 0.2225 | Mean Diff. of fold change (1 NAM vs T215Y_3_TAMs_no208): 0.2549 | Mean Diff. of fold change (2 NAMs vs 3 NAMs): −0.04654 | Mean Diff. of fold change (2 NAMs vs K65R): −0.01562 | Mean Diff. of fold change (2 NAMs vs K65R + M184V): 0.09723 | Mean Diff. of fold change (2 NAMs vs K70R_3_TAMs): −0.1999 | Mean Diff. of fold change (2 NAMs vs M184V): −0.1705 | Mean Diff. of fold change (2 NAMs vs T69): −0.2675 | Mean Diff. of fold change (2 NAMs vs T215Y_3_TAMs): 0.09297 | Mean Diff. of fold change (2 NAMs vs T215Y_3_TAMs_118): 0.1569 | Mean Diff. of fold change (2 NAMs vs T215Y_3_TAMs_208): 0.1573 | Mean Diff. of fold change (2 NAMs vs T215Y_3_TAMs_no118): 0.05035 | Mean Diff. of fold change (2 NAMs vs T215Y_3_TAMs_no208): 0.08272 | Mean Diff. of fold change (3 NAMs vs K65R): 0.03092 | Mean Diff. of fold change (3 NAMs vs K65R + M184V): 0.1438 | Mean Diff. of fold change (3 NAMs vs K70R_3_TAMs): −0.1534 | Mean Diff. of fold change (3 NAMs vs M184V): −0.124 | Mean Diff. of fold change (3 NAMs vs T69): −0.221 | Mean Diff. of fold change (3 NAMs vs T215Y_3_TAMs): 0.1395 | Mean Diff. of fold change (3 NAMs vs T215Y_3_TAMs_118): 0.2035 | Mean Diff. of fold change (3 NAMs vs T215Y_3_TAMs_208): 0.2038 | Mean Diff. of fold change (3 NAMs vs T215Y_3_TAMs_no118): 0.09689 | Mean Diff. of fold change (3 NAMs vs T215Y_3_TAMs_no208): 0.1293 | Mean Diff. of fold change (K65R + M184V vs K70R_3_TAMs): −0.2972 | Mean Diff. of fold change (K65R + M184V vs T215Y_3_TAMs): −0.004258 | Mean Diff. of fold change (K65R + M184V vs T215Y_3_TAMs_118): 0.05968 | Mean Diff. of fold change (K65R + M184V vs T215Y_3_TAMs_208): 0.06005 | Mean Diff. of fold change (K65R + M184V vs T215Y_3_TAMs_no118): −0.04688 | Mean Diff. of fold change (K65R + M184V vs T215Y_3_TAMs_no208): −0.01451 | Mean Diff. of fold change (K65R vs K65R + M184V): 0.1129 | Mean Diff. of fold change (K65R vs K70R_3_TAMs): −0.1843 | Mean Diff. of fold change (K65R vs M184V): −0.1549 | Mean Diff. of fold change (K65R vs T69): −0.2519 | Mean Diff. of fold change (K65R vs T215Y_3_TAMs): 0.1086 | Mean Diff. of fold change (K65R vs T215Y_3_TAMs_118): 0.1725 | Mean Diff. of fold change (K65R vs T215Y_3_TAMs_208): 0.1729 | Mean Diff. of fold change (K65R vs T215Y_3_TAMs_no118): 0.06597 | Mean Diff. of fold change (K65R vs T215Y_3_TAMs_no208): 0.09835 | Mean Diff. of fold change (K70R_3_TAMs vs T215Y_3_TAMs_118): 0.3569 | Mean Diff. of fold change (K70R_3_TAMs vs T215Y_3_TAMs_no118): 0.2503 | Mean Diff. of fold change (M184V vs K65R + M184V): 0.2677 | Mean Diff. of fold change (M184V vs K70R_3_TAMs): −0.02944 | Mean Diff. of fold change (M184V vs T69): −0.09699 | Mean Diff. of fold change (M184V vs T215Y_3_TAMs): 0.2635 | Mean Diff. of fold change (M184V vs T215Y_3_TAMs_118): 0.3274 | Mean Diff. of fold change (M184V vs T215Y_3_TAMs_208): 0.3278 | Mean Diff. of fold change (M184V vs T215Y_3_TAMs_no118): 0.2209 | Mean Diff. of fold change (M184V vs T215Y_3_TAMs_no208): 0.2532 | Mean Diff. of fold change (T69 vs K65R + M184V): 0.3647 | Mean Diff. of fold change (T69 vs K70R_3_TAMs): 0.06756 | Mean Diff. of fold change (T69 vs T215Y_3_TAMs): 0.3605 | Mean Diff. of fold change (T69 vs T215Y_3_TAMs_118): 0.4244 | Mean Diff. of fold change (T69 vs T215Y_3_TAMs_208): 0.4248 | Mean Diff. of fold change (T69 vs T215Y_3_TAMs_no118): 0.3179 | Mean Diff. of fold change (T69 vs T215Y_3_TAMs_no208): 0.3502 | Mean Diff. of fold change (T215Y_3_TAMs vs K70R_3_TAMs): −0.2929 | Mean Diff. of fold change (T215Y_3_TAMs vs T215Y_3_TAMs_118): 0.06394 | Mean Diff. of fold change (T215Y_3_TAMs vs T215Y_3_TAMs_208): 0.06431 | Mean Diff. of fold change (T215Y_3_TAMs vs T215Y_3_TAMs_no118): −0.04263 | Mean Diff. of fold change (T215Y_3_TAMs vs T215Y_3_TAMs_no208): −0.01025 | Mean Diff. of fold change (T215Y_3_TAMs_208 vs K70R_3_TAMs): −0.3572 | Mean Diff. of fold change (T215Y_3_TAMs_208 vs T215Y_3_TAMs_118): −0.0003693 | Mean Diff. of fold change (T215Y_3_TAMs_208 vs T215Y_3_TAMs_no118): −0.1069 | Mean Diff. of fold change (T215Y_3_TAMs_208 vs T215Y_3_TAMs_no208): −0.07456 | Mean Diff. of fold change (T215Y_3_TAMs_no118 vs T215Y_3_TAMs_118): 0.1066 | Mean Diff. of fold change (T215Y_3_TAMs_no208 vs K70R_3_TAMs): −0.2827 | Mean Diff. of fold change (T215Y_3_TAMs_no208 vs T215Y_3_TAMs_118): 0.07419 | Mean Diff. of fold change (T215Y_3_TAMs_no208 vs T215Y_3_TAMs_no118): −0.03237 | mean fold change (FC) compared to the WT population (all groups containing NAMs or the combination of TAMs shown in Table 1, p<0.0001, Student's T-test): significantly lower | Mean Diff. of fold change (wt vs 1 NAM): 0.2652 | Mean Diff. of fold change (wt vs 2 NAMs): 0.4373 | Mean Diff. of fold change (wt vs 3 NAMs): 0.3908 | Mean Diff. of fold change (wt vs K65R): 0.4217 | Mean Diff. of fold change (wt vs K65R + M184V): 0.5346 | Mean Diff. of fold change (wt vs K70R_3_TAMs): 0.2374 | Mean Diff. of fold change (wt vs M184V): 0.2668 | Mean Diff. of fold change (wt vs T69): 0.1698 | Mean Diff. of fold change (wt vs T215Y_3_TAMs): 0.5303 | Mean Diff. of fold change (wt vs T215Y_3_TAMs_118): 0.5942 | Mean Diff. of fold change (wt vs T215Y_3_TAMs_208): 0.5946 | Mean Diff. of fold change (wt vs T215Y_3_TAMs_no118): 0.4877 | Mean Diff. of fold change (wt vs T215Y_3_TAMs_no208): 0.5201
